Like-named read-outs stand apart in the source and are kept apart here.

In one data set the test system is Dp16 mice. The experiment in a line: Dp16 mouse model of Down syndrome challenged with poly(I:C). The format is in vivo. The source says: Waugh et al., “Triplication of the interferon receptor locus contributes to hallmarks of Down syndrome in a mouse model”, Nat. Genet., 55, 1034-1047 (2023), note that the B6.129S7-Dp(16Lipi-Zbtb21)1Yey/J mouse model of DS, sometimes referred to as the Dp16 mouse, carries a segmental duplication of mouse chromosome 16 causing triplication of ˜120 protein-coding genes orthologous to those on human chromosome 21, including the Ifnr cluster; and that Dp16 mice display key phenotypes of DS including hyperactive IFN signaling, a dysregulated antiviral response, increased prevalence of heart defects, developmental delays, cognitive impairments and craniofacial anomalies. The TLR3 agonist polyinosinic-polycytidylic acid, poly(I:C), is an innate immune stimulus known to trigger an IFN response. Three groups of Dp16 mice were dosed from day ˜7 through 10 by gavage at 10 mg/Kg, twice/day for the first 5 days and once/day thereafter, with vehicle (2 groups) or compound 2 in vehicle (1 group), and one of the vehicle groups and the compound 2 group were dosed by injection with poly(I:C) on day 7, while the other vehicle group was given a sham injection. Treatment with compound 2 ameliorated the increased expressions of cytokines, IFNα and […], TNF-α, IL-2, -5, -6, -10, and -12P70, and attenuated the inflammatory response, including ameliorating the skin thickening, induced by Poly(I:C) in these Dp16 mice. Transcriptome analysis of liver samples identified gene sets substantially dysregulated in the Dp16 mice and attenuated by treatment with compound 2; including signatures of increased cell proliferation (E2F targets and G2/M checkpoint), increased JAK/STAT and interferon signaling, and decreased fatty acid metabolism. The genistein phosphate derivatives of this invention are therefore expected to be useful for the treatment of subjects with Down syndrome.

Data set [1] concerns mice with cerulein-induced acute edematous pancreatitis. The experiment in a line: Cerulein model of acute edematous pancreatitis. The format is in vivo, mouse. The conditions noted are these: 100 mg/Kg by gavage 30 minutes after first and fourth cerulein injections; initial findings. As for the experimental part:
Using the cerulein model, acute edematous pancreatitis was induced in two test groups of mice by eight hourly intraperitoneal injections of 50 μg/Kg cerulein, with control group mice receiving injections of physiological saline. Compound 2, at 100 mg/Kg, was administered to one of the cerulein groups by gavage 30 minutes after the first and fourth cerulein injections. Mice were sacrificed one hour after the last injection and tissues were collected for histological analysis. […] Recurrent acute pancreatitis (RAP) and chronic pancreatitis (CP) were induced by repetitive cerulein injections every third day over a span of 14 days (RAP) or 6 weeks (CP). Compound 2 was administered daily at 50 mg/Kg on the last 10 consecutive days for RAP and at 100 mg/Kg on the last 4 weeks for CP, with vehicle controls. Mice were sacrificed 1 day after the last cerulein injection and tissues were collected for histological analysis. In the CP model, the cerulein injections induced extensive acinar cell damage.

The nature of data set [2]: Approximate solubility in selected solvents by visual observation. The conditions noted are these: thermodynamic from solid. It is filed as physicochemical. As for the experimental part:
Solubility testing of compound 2 was carried out by adding 20 μL aliquots (to a maximum of 1 mL) of selected solvents (water, methanol, DCM, and THF) to about 5 mg samples of compound 2 at 25 C with vortexing and sonication; and the approximate solubility determined by visual observation. Similar testing was carried out at 50 C, using about 10 mg samples of compound 2.

A further data set is described as follows: log P. It is filed as physicochemical.
The nature of data set [3]: Pharmacokinetics in the rat, dosing in solution. As to conditions: rat, in vivo, 25 mg/kg.
Data set [4] deals with chondrocyte pellets differentiated from human mesenchymal stem cells (MSCs). Description: Mini-joint model, IL-1β inflamed chondrocyte pellets, PCR analysis. The conditions noted are these: up to 5 μM with 0.01 ng/mL IL-1β for 3 days. The format is cell-based. As for the experimental part:
In the mini-joint model, human mesenchymal stem cells (MSCs) were differentiated into chondrocytes in pellet culture over a period of 3 weeks. The chondrocyte pellets were then maintained in a medium containing 0.5 ng/mL of TGF-β for 1 week. Inflammation was induced by treating the pellets with 1 ng/mL of IL-1β for 1 day. Following this, the pellets were treated with compound 2 at up to 5 μM together with 0.01 ng/mL of IL-1β to sustain the inflammatory environment for 3 days. At the conclusion of the treatment, the pellets were collected for PCR analysis.

A short description of data set [5]: Intestinal stability, mouse intestinal S9. It is filed as in vitro ADME. The conditions noted are these: intestinal S9 fraction. As for the experimental part: The stability of compounds 1 and 2, and the control compound 7-hydroxycoumarin, were measured using human, rat, and mouse intestinal S9 fractions (Xenotech). Test compound working solutions were prepared by diluting 5 μL of 10 mM stock solutions in DMSO with 495 μL AN. S9 solutions were prepared by diluting the obtained S9 solutions to 1.0 mg/mL in 100 mM potassium phosphate buffer at pH 7.4 containing 10 mM D-saccharic acid-1,4-lactone. An Apricot automation workstation was used to add 100 μL/well of S9 solution to all reaction plates (Blank, T0, T5, T15, T30, T45, T60 and NCF60); 2 μL/well of compound working solutions were added to all 96-well reaction plates except the blank (T0, T5, T15, T30, T45, T60, and NCF60); 600 μL/well of stop solution (4° C. ACN containing 200 ng/mL tolbutamide and 200 ng/mL labetalol as internal standards) was added to the T0 reaction plate; all plates were pre-incubated at 37° C. for 10 minutes; a cofactor regenerating system (98 μL/well) was added, excluding the NCF60 plate which instead received 98 μL/well of 100 mM potassium phosphate buffer. All plates were then incubated at 37° C. To terminate reactions, 600 μL/well of stop solution was applied at specific end time points. After sealing and a 10-minute shaking, plates were centrifuged at 4000 rpm and 4° C. for 20 minutes. Concurrently, 300 μL/well of HPLC grade water was loaded onto eight new 96-well bioanalysis plates. Post-centrifugation, 100 μL supernatant from each reaction plate was transferred to its corresponding bioanalysis plate, shaken for 10 minutes, and then subjected to LC-MS/MS analysis (Shimadzu LC-40D LC system coupled to a Sciex Qtrap 6500 Plus mass spectrometer, using both positive and negative ion modes).

The solubility is how much of the substance goes into solution per volume. One may read the logP as the decadic logarithm of the partition coefficient of the neutral form, usually between octanol and water. Lower therefore signals lower lipophilicity. What is called Cmax is the highest concentration seen after dosing. As usually defined, the Tmax is the time from dosing to the highest level. As a reminder, the half-life is how long it takes for the measured level to halve. A low value points to fast loss. Turning to `O=c1c(-c2ccc(O)cc2)coc2cc(OCOP(=O)(O)O)cc(O)c12` [Compound 2, ((5-Hydroxy-3-(4-hydroxyphenyl)-4-oxo-4H-chromen-7-yl)oxy)methyl dihydrogen phosphate], in the data set with Dp16 mice (10 mg/Kg by gavage), the “inflammatory response induced by Poly(I:C)” value is listed as “attenuated” and the “skin thickening induced by Poly(I:C)” value is listed as “ameliorating”. In addition, the “increased expressions of cytokines, IFNα and […], TNF-α, IL-2, -5, -6, -10, and -12P70” value in the data set with Dp16 mice (10 mg/Kg by gavage, twice/day first 5 days then once/day, poly(I:C) injection) is on record as “ameliorated”. In addition, in the data set on Dp16 mice (transcriptome analysis of liver samples), the “dysregulated liver gene sets (cell proliferation, JAK/STAT and interferon signaling, fatty acid metabolism)” value was “attenuated”. In data set [1], the “acute edematous pancreatitis marked by necrosis, inflammation and edema in the pancreas (histology)” value is reported as “efficacious in reversing”. In data set [2] (25 °C, organic solvent or mixture, THF, both 25 and 50° C., read-out: solubility in THF), the solubility was 125000 to 250000 µg/mL. Moreover, the solubility in data set [2] (25 °C, organic solvent or mixture, methanol, both 25 and 50° C., read-out: solubility in methanol) was above 250000 µg/mL. Also, in data set [2] (organic solvent or mixture, DCM, 25° C., read-out: solubility in DCM), the solubility is below 5000 µg/mL. In addition, the solubility in data set [2] (water, 25° C., approximate, visual observation, read-out: solubility in water) is below 5000 µg/mL. The solubility in data set [2] (water, 50° C., approximate, visual observation, read-out: solubility in water) is around 5000 µg/mL. In addition, in “log P”, the logP was determined as 1.59. Further, in data set [3] (male, SD), the highest concentration (Cmax) was around 30 ng/mL and the time to peak (Tmax) is around 8 min. Moreover, the “decline of plasma concentration of dosed compound” value in data set [3] is “very rapid decline in concentration”. Also, in data set [4], the COL2 expression entry is “increasing”, the MMP12 expression result is “decreasing”, the TNF-α expression result was “decreasing” and the “chondrogenesis (expression of collagen A)” value is given as “promote”. In data set [5] (pH 7.4), the half-life at 1 µM was 68.1 min. Further, the microsomal CLint at 1 µM in data set [5] (pH 7.4, read-out: intrinsic clearance rate) amounted to 20.3 µL/min/mg.
